Experiment [1] concerns head and neck adenocarcinoma. The experiment can be described thus: Clinical study of anlotinib hydrochloride capsules in recurrent/metastatic head and neck adenocarcinomas. It counts as in vivo, human. To be noted: patients with head and neck adenocarcinoma; 12 mg once daily orally, d1-14 of each 21-day cycle.
Another experiment relates to head and neck cancer. Briefly: Clinical study of anlotinib with intensity modulated radiotherapy in previously untreated head and neck cancer. It counts as in vivo, human. Particulars: patients with head and neck cancer; anlotinib 10 mg/day combined with radiotherapy. The protocol: Previously untreated patients with pathologically confirmed head and neck cancer, specifically including ones with nasopharyngeal carcinoma, tonsil cancer, floor of mouth cancer, oral cancer, laryngeal cancer and hypopharyngeal cancer, were all received intensity modulated radiotherapy after administration of anlotinib. The administration regimens are detailed below. Anlotinib: administered about one week before radiotherapy, 10 mg/day for a three-cycle treatment, consecutively two-week treatment and then one-week interruption, and whether the medicine was administered continuously was determined according to the change in tumors after radiotherapy. The efficacy evaluation observation indexes include 3-year overall survival (OS), […] (DFS), 3-year distant metastasis rate and local control rate. Patient, pathologically diagnosed with tonsil cancer, starting taking anlotinib hydrochloride capsules on Oct. 10, 2018 once daily, orally before breakfast at a dose of 10 mg each time, with consecutively two-week treatment and then one-week interruption; starting receiving radiation therapy on Oct. 15, 2018. Patient, pathologically diagnosed with nasopharyngeal carcinoma, starting taking anlotinib hydrochloride capsules on Nov. […]

For experiment [2], the system named is human laryngeal carcinoma TU212 cell line. Briefly: MTT cell growth inhibition, TU212 cell line. It is filed as cell-based. Particulars: MTT method, in vitro. The protocol:
(§1) The test drugs were dissolved in dimethyl sulfoxide to prepare a 100 mmol/L stock solution, which was stored at −20° C. for later use. When in use, the stock solution was diluted with a DMEM serum culture medium to a desired concentration.
(§2) The human laryngeal squamous cell carcinoma Hep-2 cell line and the human laryngeal carcinoma TU212 cell line were separately cultured in a DMEM complete culture medium containing 10% fetal bovine serum and 0.1 g/L streptomycin and penicillin (the final concentration is 100 U·mL^−1), and the mixtures were incubated in an incubator at 37° C./5% CO2. When the cell fusion reached about 85%, the cells were mixed and digested using 0.02% EDTA and 0.25% trypsin, and then the cells were collected, centrifuged at 1000 r/min, and subcultured.
(§3) The IC50 value can be measured by a conventional method in the art (e.g., conventional MTT method), or can be measured by the following method (MTT method). […]
(§4) Half maximal inhibitory concentration IC50 was calculated according to inhibition rates at all concentrations using GraphPad Prism 5 software.
A general note: Tetrazolium dyes change colour on reduction, which living cells bring about.

Experiment [3] deals with human laryngeal squamous cell carcinoma Hep-2 cell line. The experiment can be described thus: MTT cell growth inhibition, Hep-2 cell line. It is filed as cell-based. Particulars: MTT method, in vitro. On the procedure: as §1, §2, §3, §4
The subject of experiment [4] is human oral squamous cell carcinoma CAL-27 cell line. Briefly: MTT cell growth inhibition, CAL-27 cell line. To be noted: MTT method, in vitro. It is filed as cell-based. The protocol: as §1
(§5) The human oral squamous cell carcinoma scc4 cell line, the human oral squamous cell carcinoma CAL-27 cell line and the human oral squamous cell carcinoma HSC-4 cell line were separately cultured in a DMEM complete culture medium containing 10% fetal bovine serum and 0.1 g/L streptomycin and penicillin (the final concentration is 100 U·mL^−1), and the mixtures were incubated in an incubator at 37° C./5% CO2. When the cell confluence reached about 85%, the cells were mixed and digested using 0.02% EDTA and 0.25% trypsin, and then the cells were collected, centrifuged at 1000 r/min, and subcultured.
as §3, §4

Experiment [5] relates to human oral squamous cell carcinoma HSC-4 cell line. Briefly: MTT cell growth inhibition, HSC-4 cell line. It is filed as cell-based. To be noted: MTT method, in vitro. On the procedure: as §1, §5, §3, §4
Experiment [6] has as its system human oral squamous cell carcinoma scc4 cell line. Briefly: MTT cell growth inhibition, scc4 cell line. It counts as cell-based. Particulars: MTT method, in vitro. On the procedure:
as §1, §5, §3, §4

Structures can show the parent of a compound that is named as a salt.

As for `COc1cc2c(Oc3ccc4[nH]c(C)cc4c3F)ccnc2cc1OCC1(N)CC1` [anlotinib, 1-[[[4-(4-fluoro-2-methyl-1H-indol-5-yl)oxy-6-methoxyquinolin-7-yl]oxy]methyl]cyclopropylamine], the clinical benefits entry in experiment [1] was “had clinical benefits”; with head and neck cancer, “had clinical benefits”.

For the compound `COc1cc2c(Oc3ccc4[nH]c(C)cc4c3F)ccnc2cc1OCC1(N)CC1` [dihydrochloride of the compound I], the “effect on the proliferation of the human laryngeal carcinoma cells” value in experiment [2] was “clear inhibitory effect”. The “effect on the proliferation of the human laryngeal squamous cell carcinoma cells” value in experiment [3] was “clear inhibitory effect”. The “effect on the proliferation of the human oral squamous cell carcinoma cells” value in experiment [4], in experiment [5] and in experiment [6] was “clear inhibitory effect” throughout.

The values above are taken from patent US20220211694A1, “QUINOLINE DERIVATIVES FOR TREATMENT OF HEAD AND NECK CANCER” (CHIA TAI TIANQING PHARMACEUTICAL GROUP CO., LTD., priority 2019, published 2022).
